ChEMBL document CHEMBL1201862, “PubChem BioAssay data set” (2004)
The source made the active and inactive calls.

How the values were obtained:
[1] = biological target: T1, Replicative DNA helicase DnaB (Mycobacterium tuberculosis, UniProt P9WMR3); assay: DnaB intein splicing inhibitors, dose response, biochemical, cell-free fluorescence (AID 449749); format: functional
T1 sequence (P9WMR3 whole entry): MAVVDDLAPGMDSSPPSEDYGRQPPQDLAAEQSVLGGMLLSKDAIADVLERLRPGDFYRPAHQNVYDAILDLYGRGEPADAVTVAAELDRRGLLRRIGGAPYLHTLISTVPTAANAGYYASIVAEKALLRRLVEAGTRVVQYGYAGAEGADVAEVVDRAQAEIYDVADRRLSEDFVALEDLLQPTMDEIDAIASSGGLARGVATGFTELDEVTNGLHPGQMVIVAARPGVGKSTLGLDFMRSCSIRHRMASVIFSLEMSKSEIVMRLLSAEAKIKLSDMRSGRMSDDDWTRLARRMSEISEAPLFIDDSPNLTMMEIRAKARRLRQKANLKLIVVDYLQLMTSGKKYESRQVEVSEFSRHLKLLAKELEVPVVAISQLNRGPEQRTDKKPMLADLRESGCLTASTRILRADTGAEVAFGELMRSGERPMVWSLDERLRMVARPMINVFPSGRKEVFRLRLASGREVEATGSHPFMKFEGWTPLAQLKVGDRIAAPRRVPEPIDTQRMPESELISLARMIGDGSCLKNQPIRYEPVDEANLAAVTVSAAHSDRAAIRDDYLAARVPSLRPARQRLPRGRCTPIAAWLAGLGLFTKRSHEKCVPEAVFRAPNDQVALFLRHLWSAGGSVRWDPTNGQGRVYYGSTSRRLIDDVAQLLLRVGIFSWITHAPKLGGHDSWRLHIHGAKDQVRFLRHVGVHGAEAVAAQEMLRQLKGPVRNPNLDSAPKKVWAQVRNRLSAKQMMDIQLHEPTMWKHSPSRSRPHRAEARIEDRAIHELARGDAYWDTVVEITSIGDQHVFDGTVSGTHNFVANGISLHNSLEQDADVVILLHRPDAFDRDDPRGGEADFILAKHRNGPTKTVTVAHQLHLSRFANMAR

[2] = biological target: T2, Apoptotic protease-activating factor 1 (Homo sapiens, UniProt O14727); format: functional
T2 sequence (O14727 whole entry): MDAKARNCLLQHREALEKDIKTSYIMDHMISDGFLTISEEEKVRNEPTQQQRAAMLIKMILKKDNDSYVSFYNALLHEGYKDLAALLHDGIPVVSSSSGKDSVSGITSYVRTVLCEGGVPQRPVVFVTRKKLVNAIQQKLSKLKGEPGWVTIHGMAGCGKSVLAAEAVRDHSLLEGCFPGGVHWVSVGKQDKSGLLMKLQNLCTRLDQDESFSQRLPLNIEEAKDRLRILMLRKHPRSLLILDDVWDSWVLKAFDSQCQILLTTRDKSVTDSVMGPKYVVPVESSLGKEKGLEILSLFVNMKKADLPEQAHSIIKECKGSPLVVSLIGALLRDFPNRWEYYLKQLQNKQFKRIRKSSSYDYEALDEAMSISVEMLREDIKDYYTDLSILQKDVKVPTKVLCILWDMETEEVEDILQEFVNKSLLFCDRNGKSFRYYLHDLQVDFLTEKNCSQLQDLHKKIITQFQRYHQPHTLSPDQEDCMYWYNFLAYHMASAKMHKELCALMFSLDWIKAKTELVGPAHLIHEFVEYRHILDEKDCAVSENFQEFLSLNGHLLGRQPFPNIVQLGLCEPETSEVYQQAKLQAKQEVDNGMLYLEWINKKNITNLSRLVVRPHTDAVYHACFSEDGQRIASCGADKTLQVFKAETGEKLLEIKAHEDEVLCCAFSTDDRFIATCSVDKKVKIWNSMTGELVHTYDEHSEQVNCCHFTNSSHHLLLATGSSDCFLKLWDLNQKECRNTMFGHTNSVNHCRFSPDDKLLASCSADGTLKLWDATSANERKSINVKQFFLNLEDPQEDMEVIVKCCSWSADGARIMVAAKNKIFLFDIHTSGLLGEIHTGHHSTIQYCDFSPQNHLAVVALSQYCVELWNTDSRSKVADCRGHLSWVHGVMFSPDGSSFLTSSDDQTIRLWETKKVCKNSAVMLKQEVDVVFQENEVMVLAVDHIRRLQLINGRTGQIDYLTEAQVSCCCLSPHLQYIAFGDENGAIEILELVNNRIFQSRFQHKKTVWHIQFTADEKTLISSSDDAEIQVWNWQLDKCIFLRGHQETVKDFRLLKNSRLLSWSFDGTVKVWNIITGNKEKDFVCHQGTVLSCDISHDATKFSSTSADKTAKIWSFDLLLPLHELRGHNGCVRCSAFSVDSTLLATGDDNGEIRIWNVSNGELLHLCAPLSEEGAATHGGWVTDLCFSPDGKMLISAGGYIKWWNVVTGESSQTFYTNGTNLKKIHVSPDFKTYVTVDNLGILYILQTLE

[3] = biological target: T3, Zinc finger protein mex-5 (Caenorhabditis elegans, UniProt Q9XUB2); assay: MEX-5/TCR-2 RNA interaction inhibitors, dose response, biochemical, C. elegans, fluorescence polarization (AID 1960)
T3 sequence (Q9XUB2 whole entry): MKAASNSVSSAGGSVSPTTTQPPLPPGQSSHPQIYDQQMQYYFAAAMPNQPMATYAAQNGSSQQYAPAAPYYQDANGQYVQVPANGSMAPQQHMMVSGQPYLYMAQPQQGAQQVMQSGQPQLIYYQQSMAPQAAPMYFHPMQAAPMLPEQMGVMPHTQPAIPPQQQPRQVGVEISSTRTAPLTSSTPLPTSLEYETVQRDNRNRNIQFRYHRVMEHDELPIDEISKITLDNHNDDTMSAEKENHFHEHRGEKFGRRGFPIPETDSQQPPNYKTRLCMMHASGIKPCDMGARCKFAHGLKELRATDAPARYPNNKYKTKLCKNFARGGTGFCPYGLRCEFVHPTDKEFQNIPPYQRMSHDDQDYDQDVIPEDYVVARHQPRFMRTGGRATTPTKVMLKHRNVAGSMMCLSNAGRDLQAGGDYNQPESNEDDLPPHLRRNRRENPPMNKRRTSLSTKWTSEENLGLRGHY

| SMILES | AC50 [1] | IC50 [2] | EC50 [3] |
| --- | --- | --- | --- |
| COC(=O)c1ccc(-c2ccc(C(c3c(C)[nH][nH]c3=O)c3c(C)[nH][nH]c3=O)o2)cc1 | 595 nM (inconclusive) | 23900 nM (active) | – |
| Oc1ccc(/C=N/NC(=S)Nc2cccnc2)c(O)c1O | – | – | 86 nM (active) |
